Laboratory results as given in paper PMC1978517, “Novel Decapeptides that Bind Avidly and Deliver Radioisotope to Colon Cancer Cells” (PLoS ONE, 2007).

Legend:
[1] = test system: seven avidly binding cell lines (Caco-2, HCT15, HCT116, LoVo, HT29, SEG1, QHTRT); assay: Binding of 32P-labeled decapeptide to cell lines, two hour incubation, scintillation counting; assay type: cell-based; details: two hour incubation with 32P-labeled peptide, seven of the eighteen cell lines
Method: (§2) Assay of the binding of ^32P-labeled decapeptides to cell lines: Cell lines were grown in complete medium containing 10% bovine fetal serum (heat inactivated). In each well of a 96-well plate, 10,000 cells from various cell lines were grown overnight in complete medium. Ten µl of the labeled-peptide in 1 X PBS and 90 µl of complete medium were added to each well and incubated at 37°C at various times of up to two hours. The peptide-medium was removed and one µl added to 100 ul gel loading buffer and counted by scintillation counting for the probe control or run on a polyacrylamide-SDS gel (Biorad).The adherent cells were briefly and gently washed with complete medium three times and some wells were assayed immediately by adding 100 µl of gel loading buffer to each well and run on a gel or counted in a scintillation counter. Other wells had 100 µl complete medium added and incubated for a further time period. Samples were either counted in a liquid scintillation counter or run on polyacrylamide-SDS gels, exposed to x-ray film, and the film developed.

[2] = test system: Caco-2 cells; assay: Release and retention of 32P counts after washing and further incubation in complete medium; assay type: cell-based
Method: (§1) The peptide binding, washing and assay experiment described for Figure 2 was then repeated in the seven most avidly binding cell lines using MA5, except that after three washes of medium, 200 ul of complete medium was added to each well and the cells were incubated overnight at 37°C. […] Approximately 88% of MA5 radioactive counts initially retained by the colon cancer cell lines was released into the medium, while approximately 12% of initially retained radioactive counts were retained by cells. The two esophageal cell lines that originally retained large amounts of radioactive counts, QH-TRT and SEG1, retained 39% and 37% of their original counts, respectively, after overnight incubation. Caco-2 cells retained the greatest number of counts, averaging 58,305 cpm in triplicate wells containing 10,000 cells each. This figure represents approximately 5.8 cpm, or 348 counts per hour, per cell (i.e., when extrapolated over a potential 2-week exposure period, equivalent to over 87,000 counts per cell).

[3] = test system: Caco-2 colon adenocarcinoma cell line
Method: as §2

[4] = test system: eleven nonbinding cell lines (HeLa S3, RKO, 1271, A549, KYSE-70, HT1080, 293H, 1459, HEEpiC, T84, SK-BR-3); assay: Binding of 32P-labeled decapeptide to cell lines, two hour incubation, scintillation counting; assay type: cell-based
Method: as §2

[5] = test system: seven avidly binding cell lines; assay: Release and retention of 32P counts after washing and overnight incubation in complete medium; assay type: cell-based; details: all seven avidly binding lines
Method: as §1

[6] = test system: SEG1 esophageal adenocarcinoma cell line; assay: as above; assay type: cell-based; details: two hour incubation, three washes, overnight at 37°C in complete medium
Method: as §1

[7] = test system: QH-TRT Barrett's esophagus cell line; assay: as above; assay type: cell-based; details: two hour incubation, three washes, overnight at 37°C in complete medium
Method: as §1

[8] = test system: colon cancer cell lines; assay: as above; assay type: cell-based; details: two hour incubation, three washes
Method: as §1

[9] = two hours incubation, three wash steps, overnight incubation in medium
[10] = two hour incubation, three washes, 10,000 cells

ratio of cpm retained by Caco-2 to the average of the eleven nonbinding cell lines ([3]; Caco-2): 818
Sequence: GSRRASVASA [MA5]
retention of radioactivity (in words) [1]: very strong retention of radioactivity
time course of release of counts (in words) ([2]; 48-hour time period after two hour incubation and washing, triplicate determinations): majority of the total counts released over the 48 hour time period are released by nine hours of incubation
counts retained by cells after overnight incubation ([2]; average of triplicate wells containing 10,000 cells each, two hour incubation, washes, overnight in medium): 58,305 cpm
counts per cell extrapolated over a potential 2-week exposure period ([2]; extrapolated): over 87,000 counts per cell
counts per cell per day, extrapolated ([2]; extrapolated from 5.8 cpm per cell): over 8,300 counts per cell per day
originally retained 32P isotope released [2, 9]: 88%
originally retained 32P isotope retained by cells [2, 9]: 12%
share of the total radioactive counts present in the incubation well retained by cells ([3]; after two-hour incubation): approximately 18%
radioactive dose transferred per cell ([3]; two hour incubation, wash, immediate determination of retained radioactivity): over 29 counts per minute per cell
retention difference between variants (MA2 vs MA5) ([3]; two hours' incubation, counts bound as percentage of total counts): 70 fold
binding (in words) ([4]; two hour incubation with 32P-labeled peptide, eleven of eighteen cell lines): did not bind
average 32P counts bound, remaining eleven cell lines along with one blank well [4, 10]: 365 cpm
mean values of 32P counts bound, blank wells and nonbinding cell lines [4, 10]: less than 550 cpm
radioactivity released after an overnight incubation [5]: 63% to 88
original counts retained after overnight incubation [6]: 37%
original counts retained after overnight incubation [7]: 39%
radioactive counts initially retained that were released into the medium ([8]; 200 ul complete medium, overnight at 37°C): Approximately 88%
initially retained radioactive counts retained by cells ([8]; overnight at 37°C in complete medium): approximately 12%
